Laboratory results published in patent US20260207570A1, “OPTIMIZED DOSING OF LERIGLITAZONE” (MINORYX THERAPEUTICS S.L., priority 2022, published 2026).
Where “and” joins values, the source holds several entries; their conditions need not be identical. Equal entries are not always repeated. Where two headings read alike, the source gives them in different places.

Assay: Phase 1 single ascending dose (SAD) pharmacokinetics in healthy volunteers
Assay type: in vivo, human
Conditions: for Ka: estimated; for Vd / Tmax / Vd/F / AUC / Cmax / AUC(0-t): male, human, plasma, oral; for Vd: NCA estimate; for Vd/F: read-out: Vz/F
Experimental: Study design: A phase 1, randomized, double blind, placebo-controlled, single-center clinical study in 33 male healthy volunteers (HV) (19-54 years, 63.2-95.7 Kg) was conducted with leriglitazone HCl and divided in two parts: a single ascending dose (SAD) with three dose levels (30, 90 and 270 mg) in fasted conditions, followed with two dose levels (90 and 270 mg) in fed conditions; a multiple ascending dose (MAD) with a double-blind, parallel-design with two dose levels (135 and 270 mg) for 8 days and a separate cohort of subjects in an open-label parallel design with two dose levels (135 and 270 mg) including cerebrospinal fluid (CSF) collection on day 8. In the fasted conditions a fasting period of at least 4 hours was required before obtaining plasma samples. The food effect (FE) was assessed by comparing fasted with fed conditions (dosing after a high-fat breakfast per FDA definition with a calculated caloric content of 918 kcal). In the MAD part (fed) the medication was taken before a normal breakfast. Leriglitazone HCl was supplied by ChemConnection and an oral suspension of leriglitazone (20% w/v kleptose, 2% ethanol in 100 mM phosphate buffer pH=7.8) at 6 mg/ml was used in the study.
Blood, Urine and CSF sampling: In the SAD, blood samples were drawn at the following time points: pre-dose and 0.25, 0.5, 0.75, 1, 1.5, 2, 2.5, 3, 4, 5, 6, 8, 10, 12, 16, 24, 36, 48, 72, 96 and 120 hours post-dose. Urine was collected at pre-dose (within 12 hours prior to dosing) and over 0-6, 6-12, 12-24, 24-36, 36-48 hours post-dose collection intervals. In the MAD, blood samples were collected on day 1 at pre-dose and 0.25, 0.5, 0.75, 1, 1.5, 2, 2.5, 3, 4, 5, 6, 8, 10, 12, and 16 hours post-dose and at pre-dose and at 4 hours post-dose on day 2 to day 7, and on day 8 at pre-dose and 0.25, 0.5, 0.75, 1, 1.5, 2, 2.5, 3, 4, 5, 6, 8, 10, 12, 16, 24, 36, 48, 72, 96 and 120 hours post-dose. CSF were taken on day −1 and on day 8, at 4 hours post-dose.
Pharmacokinetic parameter calculation: PK parameters (Cmax, Tmax, t1/2, AUC0-t, CL/F, Vz/F, AUC0-t, RAUC, RCmax) were estimated using non-compartmental analysis (NCA) (Phoenix WinNonlin® Version 6.3).
Statistical analysis: Descriptive statistics for all relevant PK parameters: n, mean, minimum, median, maximum, geometric mean, and coefficient of variation (CV %); analysis of variance on Cmax and AUC to determine dose proportionality and food effect (FE).

## CC(O)c1ccc(CCOc2ccc(CC3SC(=O)NC3=O)cc2)nc1 (stereo not shown) [Leriglitazone, 5-[[4-[2-[5-(1-hydroxyethyl)pyridin-2-yl]ethoxy]phenyl]methyl]-1,3-thiazolidine-2,4-dione]
48-hour collection period
  dose excreted in urine as free analyte: < 0.4%
  dose excreted in urine as the analyte, mostly in a conjugated state: 6.5%
SAD 30 mg Fasted
  Ka: 6.35 (CV: 676%) 1/h
SAD 30 mg fasted, n = 6, geometric mean (CV %)
  CL/F: 0.679 (9.0) L/h
SAD 90 mg Fasted
  Ka: 4.43 (CV: 222%) 1/h
SAD 90 mg Fed
  Ka: 0.89 1/h and 0.89 (CV: 68%) 1/h
SAD 90 mg fasted, n = 6, geometric mean (CV %)
  CL/F: 0.746 (10.1) L/h
SAD 90 mg fed, n = 3, geometric mean (CV %)
  CL/F: 0.747 (6.7) L/h
SAD 270 mg Fasted
  Ka: 1.92 (CV: 75%) 1/h
SAD 270 mg Fed
  Ka: 0.49 (CV: 9%) 1/h
SAD 270 mg fasted, n = 5, geometric mean (CV %)
  CL/F: 0.731 (16.2) L/h
SAD 270 mg fed, n = 5, geometric mean (CV %)
  CL/F: 0.733 (17.8) L/h
SAD 30, 90 and 270 mg
  dose proportionality of AUC: AUC increased proportionally with the dose
SAD fed vs fasted, food lowered Cmax and prolonged Tmax
  food effect on overall exposure: overall exposure was not affected
From individual phase 1 plasma PK data
  leriglitazone converted to M3: up to 51%
30 mg, SAD 30 mg Fasted, per kg body weight, read-out: Vss
  Vd: 0.29 L/kg
30 mg, SAD 30 mg Fasted, read-out: Vss
  Vd: 23.1 L
30 mg, SAD 30 mg fasted, n = 6, Median, read-out: Tmax
  Tmax: 0.63 h
30 mg, SAD 30 mg fasted, n = 6, geometric mean (CV %)
  Vd/F: 23.2 L
30 mg, SAD 30 mg fasted, n = 6, geometric mean, read-out: AUC
  AUC: 44.2 µg·h/mL
30 mg, SAD 30 mg fasted, n = 6, plasma total, geometric mean (CV %), read-out: Cmax
  Cmax: 1700 ng/mL
30 mg, single dose 30 mg Fasted, read-out: AUC, Observed
  AUC: 44.2 µg·h/mL
30 mg, single dose 30 mg Fasted, read-out: Cmax, Observed
  Cmax: 1700 ng/mL
30 mg, single dose 30 mg Fasted, read-out: Tmax, Observed
  Tmax: 0.63 h
90 mg, SAD 90 mg Fasted, per kg body weight, read-out: Vss
  Vd: 0.31 L/kg
90 mg, SAD 90 mg Fasted, read-out: Vss
  Vd: 25.2 L
90 mg, SAD 90 mg Fed, per kg body weight, read-out: Vss
  Vd: 0.35 L/kg
90 mg, SAD 90 mg Fed, read-out: Vss
  Vd: 28.1 L
90 mg, SAD 90 mg fasted, n = 6, Median, read-out: Tmax
  Tmax: 0.88 h
90 mg, SAD 90 mg fasted, n = 6, geometric mean
  AUC(0-t): 117 µg·h/mL
90 mg, SAD 90 mg fasted, n = 6, geometric mean (CV %)
  Vd/F: 26.1 L
90 mg, SAD 90 mg fasted, n = 6, geometric mean, read-out: AUC
  AUC: 121 µg·h/mL
90 mg, SAD 90 mg fasted, n = 6, plasma total, geometric mean (CV %), read-out: Cmax
  Cmax: 4430 ng/mL
90 mg, SAD 90 mg fed, n = 3, Median, read-out: Tmax
  Tmax: 3 h
90 mg, SAD 90 mg fed, n = 3, geometric mean
  AUC(0-t): 116 µg·h/mL
90 mg, SAD 90 mg fed, n = 3, geometric mean (CV %)
  Vd/F: 27.8 L
90 mg, SAD 90 mg fed, n = 3, geometric mean, read-out: AUC
  AUC: 121 µg·h/mL
90 mg, SAD 90 mg fed, n = 3, plasma total, geometric mean (CV %), read-out: Cmax
  Cmax: 3170 ng/mL
90 mg, single dose 90 mg Fasted, read-out: AUC, Observed
  AUC: 121 µg·h/mL
90 mg, single dose 90 mg Fasted, read-out: Cmax, Observed
  Cmax: 4430 ng/mL
90 mg, single dose 90 mg Fasted, read-out: Tmax, Observed
  Tmax: 0.88 h
90 mg, single dose 90 mg Fed, read-out: AUC, Observed
  AUC: 121 µg·h/mL
90 mg, single dose 90 mg Fed, read-out: Cmax, Observed
  Cmax: 3170 ng/mL
90 mg, single dose 90 mg Fed, read-out: Tmax, Observed
  Tmax: 3 h
270 mg, SAD 270 mg Fasted, per kg body weight, read-out: Vss
  Vd: 0.27 L/kg
270 mg, SAD 270 mg Fasted, read-out: Vss
  Vd: 22.7 L
270 mg, SAD 270 mg Fed, per kg body weight, read-out: Vss
  Vd: 0.3 L/kg
270 mg, SAD 270 mg Fed, read-out: Vss
  Vd: 24.4 L
270 mg, SAD 270 mg fasted, n = 5, Median, read-out: Tmax
  Tmax: 1.5 h
270 mg, SAD 270 mg fasted, n = 5, geometric mean (CV %)
  Vd/F: 24 L
270 mg, SAD 270 mg fed, n = 5, Median, read-out: Tmax
  Tmax: 4 h
270 mg, SAD 270 mg fed, n = 5, geometric mean
  AUC(0-t): 357 µg·h/mL
270 mg, SAD 270 mg fed, n = 5, geometric mean (CV %)
  Vd/F: 24.9 L
270 mg, SAD 270 mg fed, n = 5, geometric mean, read-out: AUC
  AUC: 368 µg·h/mL
270 mg, SAD 270 mg fed, n = 5, plasma total, geometric mean (CV %), read-out: Cmax
  Cmax: 11500 ng/mL
270 mg, SAD Fasted doses 30, 90, 270 mg, read-out: Vss, Mean
  Vd: 0.29 L/kg
270 mg, SAD Fed doses 90, 270 mg, read-out: Vss, Mean
  Vd: 0.32 L/kg
270 mg, SAD fasting conditions, 30, 90 and 270 mg, read-out: Tmax, range
  Tmax: 0.25 to 2.5 h
